Experimental data from patent publication US20080255082A1, “Hair and/or Scalp Care Compositions Incorporating Terpenoid Compounds” (priority 2005, published 2008).
Like-named read-outs stand apart in the source and are kept apart here.

How the values were obtained:
human recombinant CB1 = target: T1, human recombinant CB1 (Homo sapiens, UniProt P21554); test: CB1R radioligand binding on membranes from HEK293 cells over-expressing CB1
T1 construct: purchased Perkin-Elmer; host or cells: HEK293
Method: (§1) Terpenoid compounds of formula (I), (II) or (III) above were evaluated for their ability to activate Cannabinoid Receptor 1 (CB1R) and Cannabinoid Receptor 2 (CB2R). Their ClogP values were also measured.
CB1R experiments were performed using membranes from HEK293 cells over-expressing human recombinant CB1, as described by the manufacturer (Perkin-Elmer) and using [3H]CP-55,490 as the radioligand.
(§2) Data of active compounds are expressed in Ki (mM) and are means ±SEM of n=3 determinations.
(§3) The values that are stated for each of the compounds is an EC50 value. This is defined as the molar concentration of an agonist, which produces 50% of the maximum possible response for that agonist. The values documented are in micromolar units.

human recombinant CB2 = target: T2, human recombinant CB2 (Homo sapiens, UniProt P34972); test: CB2R radioligand binding on membranes from HEK293 cells over-expressing CB2
T2 construct: purchased Perkin-Elmer; host or cells: HEK293
T2 sequence (P34972 whole entry): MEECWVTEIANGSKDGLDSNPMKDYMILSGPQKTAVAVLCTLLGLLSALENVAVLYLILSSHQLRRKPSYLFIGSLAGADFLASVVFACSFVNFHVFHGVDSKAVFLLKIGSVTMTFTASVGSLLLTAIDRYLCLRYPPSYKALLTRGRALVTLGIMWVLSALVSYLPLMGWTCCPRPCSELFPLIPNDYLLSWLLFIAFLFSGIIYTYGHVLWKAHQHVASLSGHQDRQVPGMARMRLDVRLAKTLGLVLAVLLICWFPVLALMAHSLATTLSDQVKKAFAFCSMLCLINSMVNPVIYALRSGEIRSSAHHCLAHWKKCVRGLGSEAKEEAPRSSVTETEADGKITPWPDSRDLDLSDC
Method: as §1
CB2R experiments were performed using membranes from HEK293 cells over-expressing human recombinant CB2, as described by the manufacturer (Perkin-Elmer), and using [3H]CP-55,495 as the radioligand.
as §2, §3

[1] = HEK293 membranes, [3H]CP-55,490 radioligand, means of n=3, read-out: CB1R Activity
[2] = HEK293 membranes, [3H]CP-55,495 radioligand, means of n=3, dash = greater than 25 micromolar, read-out: CB2R Activity

T1 sequence (P21554 whole entry): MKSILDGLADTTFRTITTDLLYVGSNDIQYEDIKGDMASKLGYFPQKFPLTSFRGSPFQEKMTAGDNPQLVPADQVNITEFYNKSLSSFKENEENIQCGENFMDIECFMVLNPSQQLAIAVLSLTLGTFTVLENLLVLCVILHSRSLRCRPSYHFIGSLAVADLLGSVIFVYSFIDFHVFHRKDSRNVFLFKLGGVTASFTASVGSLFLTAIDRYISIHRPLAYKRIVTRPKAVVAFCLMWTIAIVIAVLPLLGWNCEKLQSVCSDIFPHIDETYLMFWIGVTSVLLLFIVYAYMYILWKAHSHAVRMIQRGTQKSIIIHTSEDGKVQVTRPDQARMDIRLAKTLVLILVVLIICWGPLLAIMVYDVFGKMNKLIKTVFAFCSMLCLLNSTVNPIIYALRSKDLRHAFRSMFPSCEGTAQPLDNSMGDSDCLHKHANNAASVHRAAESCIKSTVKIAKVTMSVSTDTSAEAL

## C=C(C)C1Cc2c(cc(O)c3c2OC2C(O)Oc4cc(OC)c(OC)cc4C2C3=O)O1 (centres unmarked) [Example 1, 6-hydroxysumatrol]
Human recombinant CB1; [1]
  EC50: 17.1 µM
Human recombinant CB2; [2]
  EC50: > 25 µM

## COc1cc(C2Oc3ccc(C4CC(=O)c5c(O)cc(O)cc5O4)cc3OC2CO)ccc1O (centres unmarked) [Example 3, silandrin]
Human recombinant CB1
  EC50: 22 µM
Human recombinant CB2
  EC50: > 25 µM

## isophaseollin [Example 2]
Human recombinant CB1
  activation of Cannabinoid Receptor 1 (CB1R), in words: can activate
Human recombinant CB1; [1]
  EC50: 15.5 µM
Human recombinant CB2
  activation of Cannabinoid Receptor 2 (CB2R), in words: can activate
Human recombinant CB2; [2]
  EC50: 22.3 µM
